Data set [1] can be described thus: In vivo PK study in male Sprague Dawley rats. The following applies: rats; for C0 / AUC(0-inf) / AUC(0-t) / half-life / Cmax / Tmax / bioavailability: male, Sprague Dawley, rat, plasma; for AUC(0-inf): read-out: AUCInf Mean; for AUC(0-t): read-out: AUCLast Mean; for half-life: read-out: T1/2 Mean (converted); for bioavailability: read-out: Bioavailability. On the procedure: The studies were conducted in male Sprague Dawley rats, three rats per group, or male CD1 mice, three mice per group. Compounds were dosed 1.0 mg/Kg i.v. (vehicle ethanol: % PEG400 in deionized water, in proportions suitable for dosing a clear solution) and 3.0 mg/kg or 10 mg/kg p.o. (vehicle: 1% methyl cellulose: 1,500 cP in DI water (w/v)). A11 animals had free access to food and water. Rat i.v. PK time points: Plasma: 0.083, 0.25, 0.5, 1, 2, 4, 8 and 24 h; Rat p.o. PK time points: Plasma: 0.25, 0.5, 1, 2, 4, 8 and 24 h. Mouse i.v. PK time points: Plasma: 0.083, 0.25, 0.5, 1, 2, 4, 8, 24, and 48 h; Mouse p.o. PK time points: Plasma: 0.25, 0.5, 1, 2, 4, 8, 24, and 48 h. Concentrations of compound in the plasma samples were analyzed using a LC-MS/MS method. WinNonlin (Phoenix™, version 6.1) or other similar software was used for pharmacokinetic calculations.

The nature of data set [2]: Liver Microsome Stability Assay, human. The class given is in vitro ADME. The following applies: human liver microsomes. The protocol: Two separate experiments were performed as follows.
With Cofactors (NADPH): 25 μL of 10 mM NADPH was added to the incubations. The final concentrations of microsomes and NADPH were 0.5 mg/mL and 1 mM, respectively. The final concentration of microsomes was 0.5 mg/mL. The mixture was pre-warmed at 37° C. for 10 minutes. The reaction was started with the addition of 2.5 μL of 100 μM control compound or test compound solutions. Verapamil was used as positive control in this study. The final concentration of test compound or control compound was 1 μM. The incubation solution was incubated in water batch at 37° C. Aliquots of 25 μL were taken from the reaction solution at 0.5, 5, 15, 30 and 60 minutes. The reaction was stopped by the addition of 5 volumes of cold acetonitrile with IS (200 nM caffeine and 100 nM tolbutamide). Samples were centrifuged at 3, 220 g for 40 minutes. Aliquot of 100 μL of the supernatant was mixed with 100 μL of ultra-pure H2O and then used for LC-MS/MS analysis.
Data Analysis: All calculations were carried out using Microsoft Excel. Peak areas were determined from extracted ion chromatograms. The slope value, k, was determined by linear regression of the natural logarithm of the remaining percentage of the parent drug vs. incubation time curve.
The in vitro half-life (in vitro t1/2) was determined from the slope value:
Conversion of the in vitro t1/2 (min) into the in vitro intrinsic clearance (in vitro CLint, in μL/min/mg protein) was done using the following equation (mean of duplicate determinations): […]
The calculations of Scaled-up CLint(mL/min/kg), Predicted CLH (mL/min/kg) and EH were done using the following equation:
Scaled-up CLint=(0.693/t1/2)×(1/(microsomal protein concentration(0.5 mg/mL)))×Scaling Factors;Predicted CLH=(QH×Scaled-up CLint×fub)/(QH+Scaled-up CLint×fub);EH=Predicted CLH/QH
where QH is the hepatic blood flow (mL/min/kg) (Table 32), • fub is the fraction of unbound drug in plasma which is assumed to be 1.
“+++” indicates a Clint value less than 10 mL/min/Kg, […] indicates a Clint between 10 and 20 mL/min/Kg, and “+” indicates a Clint above 20 mL/min/Kg.

Where two headings read alike, the source gives them in different places.

The Cmax is the peak of the concentration-time curve. As usually defined, the Tmax is the time at which the peak concentration occurs. A word on the bioavailability: it is dose-corrected exposure relative to a reference, in per cent. For the molecule `O=c1c2cc(-c3ccc(C(F)(F)F)nc3)nc(-c3cccnc3)c2ncn1[C@@H]1COC[C@H]1O` [Compound 79], in data set [1] (1 mg/kg IV), the C0 stood at 663 ng/mL, the AUC(0-inf) turned out to be 1220 ng·h/mL, the AUC(0-t) came to 1200 ng·h/mL and the half-life is 1.38 h. Further, in data set [1] (1 mg/kg IV), the “CI Mean” value is 228 mL/min/kg. In data set [1] (PO, dosage of 3 mg/kg), the maximum concentration (Cmax) amounted to 508 ng/mL, the Tmax was found to be 1 h, the AUC(0-inf) was determined as 2420 ng·h/mL and the AUC(0-t) was 2270 ng·h/mL. In addition, in data set [1] (PO, dosage of 3 mg/kg), the bioavailability is 65.9% and the half-life was 2.53 h.

As to `CC(C)(O)Cn1cnc2c(-c3cccnc3)nc(-c3ccc(C(F)(F)F)cn3)cc2c1=O` [Compound 105], in data set [1] (1 mg/kg IV), the C0 was 411 ng/mL, the AUC(0-inf) is 9520 ng·h/mL, the AUC(0-t) turned out to be 4410 ng·h/mL and the half-life is 27.1 h. The “CI Mean” value in data set [1] (1 mg/kg IV) was 29.5 mL/min/kg. Moreover, in data set [1] (PO, dosage of 3 mg/kg), the Cmax is 592 ng/mL, the Tmax was found to be 6.67 h, the AUC(0-t) was determined as 11900 ng·h/mL and the bioavailability was found to be 90.2%.

Regarding `Cn1cc(-c2nc(-c3ccc(C(F)(F)F)cn3)cc3c(=O)n(CC(C)(C)O)cnc23)cn1` [Compound 103, 3-(2-hydroxy-2-methylpropyl)-8-(1-methyl-1H-pyrazol-4-yl)-6-(5-(trifluoromethyl)pyridin-2-yl)pyrido[3,4-d]pyrimidin-4(3H)-one], in data set [1] (1 mg/kg IV), the C0 stood at 199 ng/mL, the AUC(0-inf) was determined as 12300 ng·h/mL, the AUC(0-t) is 2790 ng·h/mL and the half-life was 63 h. In addition, the “CI Mean” value in data set [1] (1 mg/kg IV) was determined as 26 mL/min/kg. In data set [1] (PO, dosage of 3 mg/kg), the highest level (Cmax) was 40.2 ng/mL, the Tmax was 8 h, the AUC(0-t) stood at 794 ng·h/mL and the bioavailability is 9.49%.

With `C[C@@H](CO)n1cnc2c(-c3cccnc3)nc(-c3ccc(C(F)(F)F)cc3)cc2c1=O` [Compound 23], the “Human liver microsome clearance” value in data set [2] is on record as “+++ (“+++” indicates a Clint value less than 10 mL/min/Kg)”.

For `C[C@@H](CO)n1cnc2c(-c3cnn(C)c3)nc(-c3ccc(OC(F)(F)F)cc3)cc2c1=O` [Compound 25], the “Human liver microsome clearance” value in data set [2] was “+++ (“+++” indicates a Clint value less than 10 mL/min/Kg)”.

In the case of `CC(C)(O)Cn1cnc2c(-c3cccnc3)nc(-c3ccc(Cl)cc3)cc2c1=O` [Compound 18], in data set [2], the “Human liver microsome clearance” value is on record as “+++ (“+++” indicates a Clint value less than 10 mL/min/Kg)”.

Turning to `CC(C)(O)Cn1cnc2c(-c3cccnc3)nc(-c3ccc(C(F)(F)F)cc3)cc2c1=O` [Compound 16], the “Human liver microsome clearance” value in data set [2] is listed as “+++ (“+++” indicates a Clint value less than 10 mL/min/Kg)”.

Regarding `C[C@@H](CO)n1cnc2c(-c3cccnc3)nc(-c3ccc(C(F)(F)F)nc3)cc2c1=O` [Compound 12], the “Human liver microsome clearance” value in data set [2] is recorded as “+++ (“+++” indicates a Clint value less than 10 mL/min/Kg)”.

With `Cn1cc(-c2nc(-c3ccc(Cl)cc3)cc3c(=O)n(CC(C)(C)O)cnc23)cn1` [Compound 21], in data set [2], the “Human liver microsome clearance” value is on record as “+++ (“+++” indicates a Clint value less than 10 mL/min/Kg)”.

`Cn1cc(-c2nc(-c3ccc(C(F)(F)F)nc3)cc3c(=O)n(CC(C)(C)O)cnc23)cn1` [Compound 60]: in data set [1] (1 mg/kg IV), the C0 turned out to be 425 ng/mL, the AUC(0-inf) came to 3050 ng·h/mL, the AUC(0-t) came out at 2910 ng·h/mL and the half-life is 5.61 h. Besides, the “CI Mean” value in data set [1] (1 mg/kg IV) came to 91.3 mL/min/kg. For the same molecule, in data set [1] (PO, dosage of 3 mg/kg), the Cmax amounted to 152 ng/mL, the Tmax is 5.33 h, the AUC(0-t) was found to be 2430 ng·h/mL and the bioavailability is 27.9%.

With `Cc1ccc(-c2cc3c(=O)n([C@@H](C)CO)cnc3c(-c3cccnc3)n2)cc1` [Compound 17, (S)-3-(1-hydroxypropan-2-yl)-8-(pyridin-3-yl)-6-(p-tolyl)pyrido[3,4-d]pyrimidin-4(3H)-one], the “Human liver microsome clearance” value in data set [2] is “+ (“+” indicates a Clint above 20 mL/min/Kg)”.

Take `C[C@H](n1cnc2c(-c3cccnc3)nc(-c3cccnc3)cc2c1=O)C(C)(C)O` [Compound 34]: in data set [2], the “Human liver microsome clearance” value is “+++ (“+++” indicates a Clint value less than 10 mL/min/Kg)”.

Consider `C[C@@H](CO)n1cnc2c(-c3cnn(C)c3)nc(-c3ccc(Cl)cc3)cc2c1=O` [Compound 27], for which the “Human liver microsome clearance” value in data set [2] is reported as “+++ (“+++” indicates a Clint value less than 10 mL/min/Kg)”.

`C[C@@H](CO)n1cnc2c(-c3cccnc3)nc(-c3ccc(OC(F)(F)F)cc3)cc2c1=O` [Compound 22]: the “Human liver microsome clearance” value in data set [2] is on record as “+++ (“+++” indicates a Clint value less than 10 mL/min/Kg)”.
